Data on four compounds can be found in patent US10047084B2, “Imidazolone derivatives, pharmaceutical compositions and uses thereof” (BEIJING FORELANDPHARMA CO. LTD., priority 2013, dated 2018).

One series relates to PC-3. Kind of series: CTG cell survival assay, PC-3. The following applies: Homo sapiens, PC-3 cells. It is filed as cell-based. The essentials: (§1)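 Cells were exposed to compounds in a 3-fold dilution series, with a top final concentration of 10 uM in 0.1% DMSO. Viable cells were quantified by CellTiter-Glo ATP luminescence.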
A further series concerns MV-4-11. As to the kind of experiment: CTG cell survival assay, MV-4-11. The settings on record: Homo sapiens, MV4-11, MV-4-11 cells. Format: cell-based. The essentials: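 Cells grown in RPMI 1640 with 10% FBS were plated and cultured 24 h at 37 °C, 5% CO2, then treated with compound diluted from 10 mM DMSO stocks. Viable cells were quantified as ATP by CellTiter-Glo luminescence.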

A further series concerns SK-BR3/BT474. As to the kind of experiment: CTG cell survival assay, SK-BR3/BT474. Format: cell-based. The settings on record: SK-BR3/BT474 cells. The essentials: as §1
Series [1] is described as follows: Solubility test in common aqueous vehicles. It is filed as physicochemical. The following applies: 25° C., pH = 3.

pEC50: −log10 of the molar value.

For orientation: pEC50 means −log10 of the EC50, conventionally taken in molar units. Read a high pEC50 as a low EC50. As usually defined, the solubility is the dissolved amount per volume that the medium holds. The low end stands for little dissolved substance, the high end for much dissolved substance. For the compound `Cn1cc(-c2ccc(-c3ccc4ncc5c(c4c3)n([C@H]3CC[C@@H](O)CC3)c(=O)n5C)cn2)cn1` [Example 18, 1-((1s,4s)-4-hydroxycyclohexyl)-3-methyl-8-(6-(1-methyl-1H-pyrazol-4-yl)pyridin-3-yl)-1H-imidazo[4,5-c]quinolin-2(3H)-one], the pEC50 with PC-3 is over 7.30; with MV-4-11 it was over 7.00; in the series with SK-BR3/BT474, over 7.30. The solubility in series [1] (aqueous buffer, water) is over 5000 µg/mL.
As for `Cn1cc(-c2ccc(-c3ccc4ncc5c(c4c3)n(C3CCCN(S(C)(=O)=O)C3)c(=O)n5C)cn2)cn1` (stereo not drawn) [Example 3, 3-methyl-8-(6-(1-methyl-1H-pyrazol-4-yl)pyridin-3-yl)-1-(1-(methanesulfonyl)piperidin-3-yl)-1H-imidazo[4,5-c]quinolin-2(3H)-one], the pEC50 in the series with PC-3 was over 7.30; with MV-4-11, over 6.70; in the series on SK-BR3/BT474, over 7.00.
With `Cn1cc(-c2ccc(-c3ccc4ncc5c(c4c3)n([C@H]3CCN(S(C)(=O)=O)C3)c(=O)n5C)cn2)cn1` [Example 28, (S)-3-methyl-8-(6-(1-methyl-1H-pyrazol-4-yl)pyridin-3-yl)-1-(1-(methanesulfonyl)pyrrolidin-3-yl)-1H-imidazo[4,5-c]quinolin-2(3H)-one], the figures for the pEC50 in the series with PC-3, with MV-4-11 and in the series with SK-BR3/BT474 were over 7.30, over 7.00 and over 7.30, respectively. For the same compound, the solubility in series [1] (aqueous with cosolvent or surfactant or cyclodextrin, 30% sulfobutyl-β-cyclodextrin) is over 3000 µg/mL.
For the compound `Cn1cc(-c2ccc(-c3ccc4ncc5c(c4c3)n([C@@H]3CCCN(S(C)(=O)=O)C3)c(=O)n5C)cn2)cn1` [Example 31, (R)-3-methyl-8-(6-(1-methyl-1H-pyrazol-4-yl)pyridin-3-yl)-1-(1-(methanesulfonyl)piperidin-3-yl)-1H-imidazo[4,5-c]quinolin-2(3H)-one], the pEC50 is 7.72 in the series on PC-3, over 7.00 with MV-4-11 and over 7.00 in the series with SK-BR3/BT474. The solubility in series [1] (aqueous buffer, water) was over 5000 µg/mL.
